Test results: patent publication US4766111A, “Lipids with plasmin inhibitory properties” (Trustees of Boston University, priority 1987, dated 1988)
Several values for one entry are separate records, joined by “and”; a condition that tells them apart may be missing. Equal entries are not always repeated.

B1: ACTIVATED PURE PLASMINOGEN: activated pure plasminogen, positive reference in Test 3 (protein, UniProt P00747 20-580; P00747 581-810, looked up)
Plasmin heavy chain A: EPLDDYVNTQGASLFSVTKKQLGAGSIEECAAKCEEDEEFTCRAFQYHSKEQQCVIMAENRKSSIIIRMRDVVLFEKKVYLSECKTGNGKNYRGTMSKTKNGITCQKWSSTSPHRPRFSPATHPSEGLEENYCRNPDNDPQGPWCYTTDPEKRYDYCDILECEEECMHCSGENYDGKISKTMSGLECQAWDSQSPHAHGYIPSKFPNKNLKKNYCRNPDRELRPWCFTTDPNKRWELCDIPRCTTPPPSSGPTYQCLKGTGENYRGNVAVTVSGHTCQHWSAQTPHTHNRTPENFPCKNLDENYCRNPDGKRAPWCHTTNSQVRWEYCKIPSCDSSPVSTEQLAPTAPPELTPVVQDCYHGDGQSYRGTSSTTTTGKKCQSWSSMTPHRHQKTPENYPNAGLTMNYCRNPDADKGPWCFTTDPSVRWEYCNLKKCSGTEASVVAPPPVVLLPDVETPSEEDCMFGNGKGYRGKRATTVTGTPCQDWAAQEPHRHSIFTPETNPRAGLEKNYCRNPDGDVGGPWCYTTNPRKLYDYCDVPQCAAPSFDCGKPQVEPKKCPGR
Plasmin light chain B: VVGGCVAHPHSWPWQVSLRTRFGMHFCGGTLISPEWVLTAAHCLEKSPRPSSYKVILGAHQEVNLEPHVQEIEVSRLFLEPTRKDIALLKLSSPAVITDKVIPACLPSPNYVVADRTECFITGWGETQGTFGAGLLKEAQLPVIENKVCNRYEFLNGRVQSTELCAGHLAGGTDSCQGDSGGPLVCFEKDKYILQGVTSWGLGCARPNKPGVYVRVSRFVTWIEGVMRNN
modifications: Plasmin

What was measured:
Format in all cases: biochemical
[1] = Test 1: plasmin/plasmin-like activity, cleavage of substrate by the sample; details: Table 2
Protocol: Each fraction was diluted 1:5 in TRIS buffer (50 mM, pH 7.4, I 0.15), and then mixed with the substrate. […] In Test 2, 30 μl of a 1:40 dilution of normal human plasma were used, and in Test 3, 30 µl of […] of pure plasminogen were used. The results, shown as ΔmA/min, represents the average of five readings.

[2] = test system: normal human blood pooled plasma; assay: Test 2: plasminogen activity, sample incubated with normal human pooled plasma; details: Table 2
Protocol: Following this, the samples, diluted, were incubated with normal human blood pooled plasma, which had been diluted 1:40 in TRIS buffer, in proportions of 1 part fraction to two parts plasma. These combinations were incubated to determine if the fractions had plasminogen activator properties.
(§1) In Test 2, 30 μl of a 1:40 dilution of normal human plasma were used, and in Test 3, 30 µl of […] of pure plasminogen were used. The results, shown as ΔmA/min, represents the average of five readings.

[3] = target: purified plasminogen (Homo sapiens, UniProt P00747); assay: Test 3: plasminogen activatory activity, sample incubated with purified plasminogen
Chain of purified plasminogen (P00747 20-810 limits assumed): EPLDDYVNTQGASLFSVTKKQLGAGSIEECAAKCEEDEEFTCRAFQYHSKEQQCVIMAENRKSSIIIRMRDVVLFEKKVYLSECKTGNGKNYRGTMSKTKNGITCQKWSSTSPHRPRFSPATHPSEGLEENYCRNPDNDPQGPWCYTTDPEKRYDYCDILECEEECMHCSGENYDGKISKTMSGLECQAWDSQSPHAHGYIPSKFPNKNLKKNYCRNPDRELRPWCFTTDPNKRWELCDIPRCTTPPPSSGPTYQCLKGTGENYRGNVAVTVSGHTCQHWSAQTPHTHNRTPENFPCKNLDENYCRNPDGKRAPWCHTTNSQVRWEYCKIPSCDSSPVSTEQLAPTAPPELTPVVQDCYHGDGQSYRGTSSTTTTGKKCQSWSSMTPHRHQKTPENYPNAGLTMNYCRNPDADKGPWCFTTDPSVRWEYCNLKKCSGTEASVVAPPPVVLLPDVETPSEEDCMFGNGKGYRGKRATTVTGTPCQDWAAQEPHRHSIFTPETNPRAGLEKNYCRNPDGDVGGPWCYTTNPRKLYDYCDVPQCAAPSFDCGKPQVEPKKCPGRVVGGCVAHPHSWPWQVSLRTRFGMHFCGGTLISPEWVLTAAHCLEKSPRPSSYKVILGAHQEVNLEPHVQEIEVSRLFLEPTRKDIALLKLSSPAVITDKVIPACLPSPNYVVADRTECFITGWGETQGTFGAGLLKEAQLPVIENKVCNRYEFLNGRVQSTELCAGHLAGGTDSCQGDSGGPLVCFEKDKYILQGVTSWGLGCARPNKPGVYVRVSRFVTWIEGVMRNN
Protocol: In a third test, each fraction was incubated with purified plasminogen so as to enhance activity, because normal human pooled plasma contains plasma proteins inhibitors.
as §1

[4] = target: plasmin (Homo sapiens, UniProt P00747); assay: Antiplasmin/plasmin inhibitory activity; details: Table 3; for ABSORBANCE: absorbance at 405nm, remaining active plasmin, substrate S-225; for % INHIBITION: by reference to normal human pooled plasma standard curve
Protocol: Fifty-four different runs were conducted, using various compounds and compositions. […] A standard curve is then constructed, by diluting the pooled plasma, and mixing each dilution with a known plasmin standard. Quantity of active plasmin remaining is measured and this quantity is inversely proportional to antiplasmin activity.

[5] = Table I, sample 1:5 dilution, pure plasminogen, average of five readings

| Molecule | Plasmin Activity [1] | Plasminogen Activity [2] | Plasminogen Activatory Activity ([3]; Table 2) | ABSORBANCE [4] | % INHIBITION [4] | Plasminogen Activatory Activity [3, 5] |
| --- | --- | --- | --- | --- | --- | --- |
| CERAMIDE TRIHEXOSIDE [PURIFIED CERAMIDE TRIHEXOSIDE] | 0 | 0 | 0 | 0.184 | 0% | – |
| SPHINGOMYELIN | – | – | – | – | 18% | – |
| PURE PLASMINOGEN: purified plasminogen used in Test 3, tested alone | – | – | – | – | – | 0 ΔmA/min |
| PHOSPHATIDYL INOSITOL [PURIFIED PHOSPHATIDYL INOSITOL] | 0 | 0 | 0 | 0.187 | 0% | – |
| DIGALACTOSYL DIGLYCERIDE [PURIFIED DIGALACTOSYL DIGLYCERIDE] | 0 | 0 | 0 | 0.190 | 0% | – |
| PHOSPHATIDYL INOSITOL 4-MONOPHOSPHATE | – | – | – | Turbid | – | – |
| CERAMIDE GALACTOSIDE [PURIFIED CERAMIDE GALACTOSIDE] | 0 | 0 | 0 | 0.176 and 0.192 | – | – |
| B1 | – | – | – | – | – | 19 ΔmA/min and 18 ΔmA/min |
